# Target: T1, human PAH with the R408W mutation (Homo sapiens, UniProt P00439, R408W)
# T1 construct: expressed in transfected cells
# T1 sequence (P00439 1-452 R408W): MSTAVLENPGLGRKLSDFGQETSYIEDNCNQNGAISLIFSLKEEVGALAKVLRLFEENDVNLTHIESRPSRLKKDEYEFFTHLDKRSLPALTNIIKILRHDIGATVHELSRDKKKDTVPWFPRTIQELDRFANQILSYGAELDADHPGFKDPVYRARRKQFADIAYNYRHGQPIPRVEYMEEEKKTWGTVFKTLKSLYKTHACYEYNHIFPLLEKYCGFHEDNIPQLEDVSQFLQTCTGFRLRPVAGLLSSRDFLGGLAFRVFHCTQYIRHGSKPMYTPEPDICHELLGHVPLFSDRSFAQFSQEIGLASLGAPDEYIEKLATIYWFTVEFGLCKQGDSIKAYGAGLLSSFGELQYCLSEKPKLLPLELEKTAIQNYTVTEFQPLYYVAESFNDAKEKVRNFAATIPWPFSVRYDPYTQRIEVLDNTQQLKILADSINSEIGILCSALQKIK
# Assay: Cell Based Phenylalanine Flux Assay
# Settings: A375 cells expressing human R408W PAH; 24 hrs compound incubation; 13C-Tyrosine by LC-MS; average where tested multiple times; read-out: AC50
row,SMILES,AC50 [nM]
1,Cc1nc(C(C)(C)F)oc1C(=O)N1CCc2[nH]cnc2[C@H]1c1nc2ccccc2s1 [Example 1497],< 500
2,"Cc1nc(C(C)(C)F)oc1C(=O)N1CCc2[nH]cnc2[C@@H]1c1nc2ccccc2s1 [Example 1498, (R)-(4-(benzo[d]thiazol-2-yl)-6,7-dihydro-1H-imidazo[4,5-c]pyridin-5(4H)-yl)(2-(2-fluoropropan-2-yl)-4-methyloxazol-5-yl)methanone]",1000 to 5000
3,"O=C(c1cnc(-c2c(F)cccc2F)s1)N1CCc2[nH]cnc2[C@@H]1c1nc2c(F)cccc2s1 [Example 1503, (R)-(2-(2,6-difluorophenyl)thiazol-5-yl)(4-(4-fluorobenzo[d]thiazol-2-yl)-6,7-dihydro-1H-imidazo[4,5-c]pyridin-5(4H)-yl)methanone]",< 500
4,"CC(C)(O)c1nnc(C(=O)N2CCc3[nH]cnc3[C@@H]2c2nc3ccccc3s2)o1 [Example 1507, (R)-(4-(benzo[d]thiazol-2-yl)-6,7-dihydro-1H-imidazo[4,5-c]pyridin-5(4H)-yl)(5-(2-hydroxypropan-2-yl)-1,3,4-oxadiazol-2-yl)methanone]",1000 to 5000
5,CC(C)(O)c1nnc(C(=O)N2CCc3[nH]cnc3[C@H]2c2nc3ccccc3s2)o1 [Example 1508],1000 to 5000
6,O=C(c1cnc(-c2c(F)cccc2F)s1)N1CCc2[nH]cnc2[C@H]1c1nc2ccccc2s1 [Example 1509],< 500
7,"O=C(c1cnc(-c2c(F)cccc2F)s1)N1CCc2[nH]cnc2[C@@H]1c1nc2ccccc2s1 [Example 1510, (R)-(4-(benzo[d]thiazol-2-yl)-6,7-dihydro-1H-imidazo[4,5-c]pyridin-5(4H)-yl)(2-(2,6-difluorophenyl)thiazol-5-yl)methanone]",< 500
8,CC(F)(F)c1ncc(C(=O)N2CCc3[nH]cnc3[C@H]2c2nc3ccccc3s2)s1 [Example 1511],< 500
9,"CC(F)(F)c1ncc(C(=O)N2CCc3[nH]cnc3[C@@H]2c2nc3ccccc3s2)s1 [Example 1512, (R)-(4-(benzo[d]thiazol-2-yl)-6,7-dihydro-1H-imidazo[4,5-c]pyridin-5(4H)-yl)(2-(1,1-difluoroethyl)thiazol-5-yl)methanone]",1000 to 5000
10,O=C(c1oc(-c2ccccn2)nc1C1CC1)N1CCc2[nH]cnc2[C@H]1c1nc2ccccc2s1 [Example 1515],< 500
11,"O=C(c1oc(-c2ccccn2)nc1C1CC1)N1CCc2[nH]cnc2[C@@H]1c1nc2ccccc2s1 [Example 1516, (R)-(4-(benzo[d]thiazol-2-yl)-6,7-dihydro-1H-imidazo[4,5-c]pyridin-5(4H)-yl)(4-cyclopropyl-2-(pyridin-2-yl)oxazol-5-yl)methanone]",> 5000
12,"Cn1cc(-c2nc(C3CC3)c(C(=O)N3CCc4[nH]cnc4[C@@H]3c3nc4ccccc4s3)o2)cn1 [Example 1517, (R)-(4-(benzo[d]thiazol-2-yl)-6,7-dihydro-1H-imidazo[4,5-c]pyridin-5(4H)-yl)(4-cyclopropyl-2-(1-methyl-1H-pyrazol-4-yl)oxazol-5-yl)methanone]",1000 to 5000
13,Cn1cc(-c2nc(C3CC3)c(C(=O)N3CCc4[nH]cnc4[C@H]3c3nc4ccccc4s3)o2)cn1 [Example 1518],< 500
14,"Cc1nc(-c2ccccc2)c(C(=O)N2CCc3[nH]cnc3[C@@H]2c2nc3ccccc3s2)o1 [Example 1519, (R)-(4-(benzo[d]thiazol-2-yl)-6,7-dihydro-1H-imidazo[4,5-c]pyridin-5(4H)-yl)(2-methyl-4-phenyloxazol-5-yl)methanone]",> 5000

# More lines, now with the values ahead:
row,AC50 [nM],SMILES
1,< 500,"O=C(c1ocnc1C(F)(F)F)N1CCc2[nH]cnc2[C@H]1c1nc2c(F)cccc2s1 [Example 1493, (S)-(4-(4-fluorobenzo[d]thiazol-2-yl)-6,7-dihydro-1H-imidazo[4,5-c]pyridin-5(4H)-yl)(4-(trifluoromethyl)oxazol-5-yl)methanone]"
2,< 500,"O=C(c1ocnc1C(F)(F)F)N1CCc2[nH]cnc2[C@@H]1c1nc2c(F)cccc2s1 [Example 1494, (R)-(4-(4-fluorobenzo[d]thiazol-2-yl)-6,7-dihydro-1H-imidazo[4,5-c]pyridin-5(4H)-yl)(4-(trifluoromethyl)oxazol-5-yl)methanone]"
3,< 500,O=C(c1ocnc1C1CC1)N1CCc2[nH]cnc2[C@H]1c1nc2c(F)cccc2s1 [Example 1495]
4,1000 to 5000,"O=C(c1ocnc1C1CC1)N1CCc2[nH]cnc2[C@@H]1c1nc2c(F)cccc2s1 [Example 1496, (R)-(4-cyclopropyloxazol-5-yl)(4-(4-fluorobenzo[d]thiazol-2-yl)-6,7-dihydro-1H-imidazo[4,5-c]pyridin-5(4H)-yl)methanone]"
5,< 500,"Cc1nc(C(C)(C)F)oc1C(=O)N1CCc2[nH]cnc2[C@H]1c1nc2c(F)cccc2s1 [Example 1499, (S)-(4-(4-fluorobenzo[d]thiazol-2-yl)-6,7-dihydro-1H-imidazo[4,5-c]pyridin-5(4H)-yl)(2-(2-fluoropropan-2-yl)-4-methyloxazol-5-yl)methanone]"
6,500 to 1000,"Cc1nc(C(C)(C)F)oc1C(=O)N1CCc2[nH]cnc2[C@@H]1c1nc2c(F)cccc2s1 [Example 1500, (R)-(4-(4-fluorobenzo[d]thiazol-2-yl)-6,7-dihydro-1H-imidazo[4,5-c]pyridin-5(4H)-yl)(2-(2-fluoropropan-2-yl)-4-methyloxazol-5-yl)methanone]"
7,< 500,"CC(C)(O)c1ccc2c(C(=O)N3CCc4[nH]cnc4[C@H]3c3nc4c(F)cccc4s3)cnn2c1 [Example 1501, (S)-(4-(4-fluorobenzo[d]thiazol-2-yl)-6,7-dihydro-1H-imidazo[4,5-c]pyridin-5(4H)-yl)(6-(2-hydroxypropan-2-yl)pyrazolo[1,5-a]pyridin-3-yl)methanone]"
8,1000 to 5000,"CC(C)(O)c1ccc2c(C(=O)N3CCc4[nH]cnc4[C@@H]3c3nc4c(F)cccc4s3)cnn2c1 [Example 1502, (R)-(4-(4-fluorobenzo[d]thiazol-2-yl)-6,7-dihydro-1H-imidazo[4,5-c]pyridin-5(4H)-yl)(6-(2-hydroxypropan-2-yl)pyrazolo[1,5-a]pyridin-3-yl)methanone]"
9,< 500,O=C(c1cnc(-c2c(F)cccc2F)s1)N1CCc2[nH]cnc2[C@H]1c1nc2c(F)cccc2s1 [Example 1504]
10,1000 to 5000,"Cc1nc(-c2cnn(CC(F)(F)F)c2)oc1C(=O)N1CCc2[nH]cnc2[C@@H]1c1nc2c(F)cccc2s1 [Example 1505, (R)-(4-(4-fluorobenzo[d]thiazol-2-yl)-6,7-dihydro-1H-imidazo[4,5-c]pyridin-5(4H)-yl)(4-methyl-2-(1-(2,2,2-trifluoroethyl)-1H-pyrazol-4-yl)oxazol-5-yl)methanone]"
11,< 500,"Cc1nc(-c2cnn(CC(F)(F)F)c2)oc1C(=O)N1CCc2[nH]cnc2[C@H]1c1nc2c(F)cccc2s1 [Example 1506, (S)-(4-(4-fluorobenzo[d]thiazol-2-yl)-6,7-dihydro-1H-imidazo[4,5-c]pyridin-5(4H)-yl)(4-methyl-2-(1-(2,2,2-trifluoroethyl)-1H-pyrazol-4-yl)oxazol-5-yl)methanone]"
12,< 500,CC(F)(F)c1ncc(C(=O)N2CCc3[nH]cnc3[C@H]2c2nc3c(F)cccc3s2)s1 [Example 1513]
13,1000 to 5000,"CC(F)(F)c1ncc(C(=O)N2CCc3[nH]cnc3[C@@H]2c2nc3c(F)cccc3s2)s1 [Example 1514, (R)-(2-(1,1-difluoroethyl)thiazol-5-yl)(4-(4-fluorobenzo[d]thiazol-2-yl)-6,7-dihydro-1H-imidazo[4,5-c]pyridin-5(4H)-yl)methanone]"
